In ChEMBL document CHEMBL5291721, “A preclinical secondary pharmacology resource illuminates target-adverse drug reaction associations of marketed drugs” (Nat Commun, 2023):

Key:
[1] = target: Gamma-aminobutyric acid receptor subunit alpha-1 (Rattus norvegicus, UniProt P62813); type: functional
[2] = target: T1, Alpha-2A adrenergic receptor (Homo sapiens, UniProt P08913); type: functional, cell-based
T1 sequence (P08913 whole entry): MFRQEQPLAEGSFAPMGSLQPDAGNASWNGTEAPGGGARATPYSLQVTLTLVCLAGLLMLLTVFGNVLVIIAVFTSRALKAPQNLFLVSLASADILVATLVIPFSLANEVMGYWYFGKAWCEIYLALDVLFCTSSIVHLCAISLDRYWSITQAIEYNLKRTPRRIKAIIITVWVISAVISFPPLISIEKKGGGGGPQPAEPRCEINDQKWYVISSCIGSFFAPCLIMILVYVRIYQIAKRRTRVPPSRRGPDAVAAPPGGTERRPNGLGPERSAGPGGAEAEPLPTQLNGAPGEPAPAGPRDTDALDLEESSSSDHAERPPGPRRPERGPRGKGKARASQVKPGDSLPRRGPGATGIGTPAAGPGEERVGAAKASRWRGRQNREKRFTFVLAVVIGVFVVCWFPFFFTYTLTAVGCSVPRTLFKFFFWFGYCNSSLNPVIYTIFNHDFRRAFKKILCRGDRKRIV

[3] = target: Kappa-type opioid receptor (Homo sapiens, UniProt P41145)
Sequence of Kappa-type opioid receptor (P41145 whole entry): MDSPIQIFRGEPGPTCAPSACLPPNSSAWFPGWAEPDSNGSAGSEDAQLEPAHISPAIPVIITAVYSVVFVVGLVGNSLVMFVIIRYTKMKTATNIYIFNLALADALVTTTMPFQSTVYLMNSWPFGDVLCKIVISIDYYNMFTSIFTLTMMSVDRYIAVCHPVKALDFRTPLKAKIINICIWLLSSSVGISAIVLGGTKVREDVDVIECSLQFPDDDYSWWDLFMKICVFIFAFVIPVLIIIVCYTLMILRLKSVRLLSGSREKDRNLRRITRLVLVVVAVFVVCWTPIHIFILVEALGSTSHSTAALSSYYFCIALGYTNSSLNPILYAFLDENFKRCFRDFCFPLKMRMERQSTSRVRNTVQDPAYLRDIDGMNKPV

[4] = target: T2, Amine oxidase [flavin-containing] A (Homo sapiens, UniProt P21397); type: functional
T2 sequence (P21397 whole entry): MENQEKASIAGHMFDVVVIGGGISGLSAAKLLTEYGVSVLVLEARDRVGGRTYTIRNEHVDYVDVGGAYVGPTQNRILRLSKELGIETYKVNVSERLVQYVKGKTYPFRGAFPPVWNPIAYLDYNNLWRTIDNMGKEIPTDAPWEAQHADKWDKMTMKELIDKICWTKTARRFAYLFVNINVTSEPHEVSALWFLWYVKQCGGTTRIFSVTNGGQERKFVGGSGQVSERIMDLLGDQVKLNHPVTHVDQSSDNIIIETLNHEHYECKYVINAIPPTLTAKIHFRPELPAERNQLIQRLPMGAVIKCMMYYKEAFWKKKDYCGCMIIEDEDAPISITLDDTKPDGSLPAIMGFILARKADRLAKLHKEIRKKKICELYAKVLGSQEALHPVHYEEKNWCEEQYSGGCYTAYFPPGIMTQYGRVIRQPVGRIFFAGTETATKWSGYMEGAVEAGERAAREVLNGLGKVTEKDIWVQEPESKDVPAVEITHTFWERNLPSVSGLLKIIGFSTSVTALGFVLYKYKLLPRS

[5] = target: T3, 5-hydroxytryptamine receptor 1A (Homo sapiens, UniProt P08908)
T3 sequence (P08908 whole entry): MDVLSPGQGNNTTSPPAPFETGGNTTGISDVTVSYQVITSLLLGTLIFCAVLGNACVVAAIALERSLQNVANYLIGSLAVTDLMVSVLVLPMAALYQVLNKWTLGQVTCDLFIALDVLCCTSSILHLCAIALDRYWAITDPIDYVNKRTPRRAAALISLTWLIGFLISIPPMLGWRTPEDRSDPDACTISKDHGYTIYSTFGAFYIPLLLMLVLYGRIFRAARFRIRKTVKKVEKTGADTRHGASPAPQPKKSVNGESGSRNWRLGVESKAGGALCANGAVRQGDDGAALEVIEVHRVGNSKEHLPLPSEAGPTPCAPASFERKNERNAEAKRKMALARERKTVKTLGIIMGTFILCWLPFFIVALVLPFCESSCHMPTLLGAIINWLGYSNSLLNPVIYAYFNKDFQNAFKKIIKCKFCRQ

[6] = target: Sodium-dependent noradrenaline transporter (Homo sapiens, UniProt P23975)
Sequence of Sodium-dependent noradrenaline transporter (P23975 whole entry): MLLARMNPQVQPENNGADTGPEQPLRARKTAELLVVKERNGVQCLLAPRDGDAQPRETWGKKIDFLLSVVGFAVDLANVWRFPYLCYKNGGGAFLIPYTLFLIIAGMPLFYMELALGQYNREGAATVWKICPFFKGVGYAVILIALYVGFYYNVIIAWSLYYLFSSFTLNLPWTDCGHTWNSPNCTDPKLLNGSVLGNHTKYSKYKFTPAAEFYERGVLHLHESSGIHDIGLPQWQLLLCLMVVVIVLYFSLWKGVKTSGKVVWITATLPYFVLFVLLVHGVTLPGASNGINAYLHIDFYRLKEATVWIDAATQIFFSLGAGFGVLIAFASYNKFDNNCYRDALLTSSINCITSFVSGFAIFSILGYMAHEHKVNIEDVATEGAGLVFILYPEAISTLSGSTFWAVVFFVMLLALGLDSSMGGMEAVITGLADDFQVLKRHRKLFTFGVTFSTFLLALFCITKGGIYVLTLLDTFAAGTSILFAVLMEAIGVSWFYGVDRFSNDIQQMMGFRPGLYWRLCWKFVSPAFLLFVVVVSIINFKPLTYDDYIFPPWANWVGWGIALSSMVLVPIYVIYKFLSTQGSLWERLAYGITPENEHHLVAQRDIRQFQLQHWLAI

[7] = target: T4, Thromboxane A2 receptor (Homo sapiens, UniProt P21731); type: functional, cell-based
T4 sequence (P21731 whole entry): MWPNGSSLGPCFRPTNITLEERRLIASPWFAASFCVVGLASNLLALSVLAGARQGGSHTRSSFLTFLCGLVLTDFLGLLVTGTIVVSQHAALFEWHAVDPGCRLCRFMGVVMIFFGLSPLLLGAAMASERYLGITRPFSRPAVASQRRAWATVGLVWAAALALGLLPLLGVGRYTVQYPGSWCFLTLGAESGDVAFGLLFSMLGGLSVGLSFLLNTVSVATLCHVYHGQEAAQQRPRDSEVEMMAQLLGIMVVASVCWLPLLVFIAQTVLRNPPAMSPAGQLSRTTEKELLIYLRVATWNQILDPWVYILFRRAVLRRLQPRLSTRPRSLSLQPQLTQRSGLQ

[8] = target: D(3) dopamine receptor (Homo sapiens, UniProt P35462)
Sequence of D(3) dopamine receptor (P35462 whole entry): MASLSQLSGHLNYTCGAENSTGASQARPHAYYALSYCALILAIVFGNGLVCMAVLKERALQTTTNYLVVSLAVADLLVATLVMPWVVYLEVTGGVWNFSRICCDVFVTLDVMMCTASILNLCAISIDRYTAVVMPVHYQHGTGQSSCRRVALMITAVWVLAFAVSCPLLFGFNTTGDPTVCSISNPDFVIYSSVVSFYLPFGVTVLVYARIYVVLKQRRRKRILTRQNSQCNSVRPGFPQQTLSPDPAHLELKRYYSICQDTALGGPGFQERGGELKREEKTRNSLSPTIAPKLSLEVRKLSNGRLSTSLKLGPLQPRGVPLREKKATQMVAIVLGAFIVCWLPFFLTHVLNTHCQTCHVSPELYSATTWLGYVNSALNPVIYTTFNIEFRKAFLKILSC

[9] = target: Prostaglandin G/H synthase 1 (Homo sapiens, UniProt P23219); type: functional
Sequence of Prostaglandin G/H synthase 1 (P23219 whole entry): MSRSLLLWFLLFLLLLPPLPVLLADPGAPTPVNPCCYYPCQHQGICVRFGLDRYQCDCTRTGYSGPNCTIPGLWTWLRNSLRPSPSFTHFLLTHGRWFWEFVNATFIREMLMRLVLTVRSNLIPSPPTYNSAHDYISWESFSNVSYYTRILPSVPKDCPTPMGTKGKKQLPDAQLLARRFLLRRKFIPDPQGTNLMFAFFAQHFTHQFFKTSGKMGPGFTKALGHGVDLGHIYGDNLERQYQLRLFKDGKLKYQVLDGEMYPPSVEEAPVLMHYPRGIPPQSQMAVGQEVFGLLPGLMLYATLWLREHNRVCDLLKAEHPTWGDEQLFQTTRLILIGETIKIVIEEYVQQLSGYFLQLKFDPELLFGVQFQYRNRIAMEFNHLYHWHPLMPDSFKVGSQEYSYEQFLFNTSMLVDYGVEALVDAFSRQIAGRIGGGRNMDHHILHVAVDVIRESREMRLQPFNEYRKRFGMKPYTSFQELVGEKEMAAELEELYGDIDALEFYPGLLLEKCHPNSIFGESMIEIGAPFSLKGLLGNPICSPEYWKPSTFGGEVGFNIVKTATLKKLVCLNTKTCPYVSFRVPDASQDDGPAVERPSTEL

[10] = target: T4, Thromboxane A2 receptor; type: functional, cell-based; remark: listed apart in the source
Further: assay procedure not described here.

Sequence of Gamma-aminobutyric acid receptor subunit alpha-1 (P62813 whole entry): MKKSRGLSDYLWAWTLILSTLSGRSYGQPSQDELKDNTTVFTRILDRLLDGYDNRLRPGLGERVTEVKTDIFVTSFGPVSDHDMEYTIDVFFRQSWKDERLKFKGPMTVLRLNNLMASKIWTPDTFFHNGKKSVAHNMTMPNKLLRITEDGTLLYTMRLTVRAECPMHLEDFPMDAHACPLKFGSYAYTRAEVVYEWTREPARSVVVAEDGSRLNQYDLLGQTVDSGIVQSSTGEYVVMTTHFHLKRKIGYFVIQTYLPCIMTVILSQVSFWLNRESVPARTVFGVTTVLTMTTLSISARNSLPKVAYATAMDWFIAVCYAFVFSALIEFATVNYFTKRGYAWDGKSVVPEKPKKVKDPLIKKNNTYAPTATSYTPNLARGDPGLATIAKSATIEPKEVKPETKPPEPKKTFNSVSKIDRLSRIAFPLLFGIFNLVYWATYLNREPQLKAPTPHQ

SMILES	AC50 [1]	AC50 [2]	AC50 [3]	AC50 [4]	AC50 [5]	AC50 [6]	AC50 [7]	AC50 [8]	AC50 [9]	AC50 [10]
CCOc1nc2cccc(C(=O)O)c2n1Cc1ccc(-c2ccccc2-c2nnn[nH]2)cc1	> 30 µM	> 30 µM	> 10 µM							
CC[C@@H]1C[C@]1(NC(=O)[C@@H]1C[C@@H]2CN1C(=O)[C@H](C(C)(C)C)NC(=O)OCC(C)(C)CCCCc1cccc3c1CN(C3)C(=O)O2)C(=O)NS(=O)(=O)C1CC1				> 30 µM	> 30 µM	> 30 µM	29.5 µM	> 30 µM	> 30 µM	> 3 µM
CCOc1cc([C@@H](CS(C)(=O)=O)N2C(=O)c3cccc(NC(C)=O)c3C2=O)ccc1OC	> 30 µM	> 30 µM								
CC(=O)NO [ACETOHYDROXAMIC ACID]				> 30 µM	> 30 µM	> 30 µM	> 30 µM	> 30 µM	> 30 µM	> 30 µM
CC(=O)NCCCCCC(=O)O [ACEXAMIC ACID]				> 30 µM	> 30 µM	> 30 µM	> 30 µM	> 30 µM	> 30 µM	> 30 µM
CC(=O)Nc1ccc(CC(=O)O)cc1 [ACTARIT]	> 30 µM	> 30 µM	> 30 µM							
C=C(C)CNc1ccc(C(C)C(=O)O)cc1 (stereo not drawn) [ALMINOPROFEN]				> 30 µM	> 30 µM	> 30 µM	> 30 µM	> 30 µM	> 30 µM	> 30 µM
CC(C(=O)O)c1ccc2oc(-c3ccc(Cl)cc3)nc2c1 (stereo not drawn) [BENOXAPROFEN]	> 30 µM	> 30 µM	> 30 µM							
Nc1c(CC(=O)O)cccc1C(=O)c1ccc(Br)cc1 [BROMFENAC]				> 30 µM	> 30 µM	> 30 µM	> 30 µM	> 30 µM		> 30 µM
CC1(C)S[C@@H]2[C@H](NC(=O)C(C(=O)O)c3ccccc3)C(=O)N2[C@H]1C(=O)O (stereo partly drawn) [CARBENICILLIN]	> 30 µM	> 30 µM	> 30 µM							
Cc1nnc(SCC2=C(C(=O)O)N3C(=O)[C@@H](NC(=O)Cn4cnnn4)[C@H]3SC2)s1 [CEFAZOLIN]	> 300 µM	> 300 µM	> 30 µM							
CC=CC1=C(C(=O)O)N2C(=O)[C@@H](NC(=O)[C@H](N)c3ccc(O)cc3)[C@H]2SC1 [CEFPROZIL]	> 30 µM	> 30 µM	> 30 µM							
CC(C)(O/N=C(\C(=O)N[C@@H]1C(=O)N2C(C(=O)[O-])=C(C[n+]3ccccc3)CS[C@H]12)c1csc(N)n1)C(=O)O [CEFTAZIDIME]	> 300 µM	> 300 µM	> 30 µM							
CCCNC(=O)NS(=O)(=O)c1ccc(Cl)cc1 [CHLORPROPAMIDE]	> 10 µM	> 10 µM	> 10 µM							
Cc1cc(C2CCCCC2)n(O)c(=O)c1 [CICLOPIROX]				> 30 µM	> 30 µM	> 30 µM	25.4 µM	> 30 µM	> 30 µM	
Clc1ccc(Cn2c(CN3CCCC3)nc3ccccc32)cc1 [CLEMIZOLE]	> 30 µM	> 10 µM								
CCC(=O)O[C@]1(C(=O)CCl)[C@@H](C)C[C@H]2[C@@H]3CCC4=CC(=O)C=C[C@]4(C)[C@@]3(F)[C@@H](O)C[C@@]21C [CLOBETASOL PROPIONATE]	> 30 µM	> 30 µM	> 30 µM							
Cc1nc(Nc2ncc(C(=O)Nc3c(C)cccc3Cl)s2)cc(N2CCN(CCO)CC2)n1 [DASATINIB]		> 10 µM	> 10 µM							

SMILES	AC50 [1]	AC50 [2]	AC50 [3]	AC50 [4]	AC50 [5]	AC50 [6]	AC50 [7]	AC50 [8]	AC50 [9]	AC50 [10]
CC(C)Cc1ccc([C@H](C)C(=O)O)cc1 [DEXIBUPROFEN]	> 30 µM	> 30 µM								
O=C(O)Cc1ccccc1Nc1c(Cl)cccc1Cl [DICLOFENAC]	> 10 µM	> 10 µM	> 10 µM	> 3 µM	> 3 µM	> 3 µM	> 3 µM	> 3 µM		> 3 µM
CNC[C@H](O)c1ccc(O)c(O)c1 [EPINEPHRINE]	> 30 µM									
Cc1onc(-c2c(F)cccc2Cl)c1C(=O)N[C@@H]1C(=O)N2[C@@H]1SC(C)(C)[C@@H]2C(=O)O [FLOXACILLIN]	> 30 µM	> 30 µM								
CCCCCCCN(CC)CCCC(O)c1ccc(NS(C)(=O)=O)cc1 (stereo not drawn) [IBUTILIDE]	> 30 µM	> 30 µM	> 30 µM							
CC[C@H](C)C(=O)O[C@H]1C[C@@H](C)C=C2C=C[C@H](C)[C@H](CC[C@@H]3C[C@@H](O)CC(=O)O3)[C@H]21 [LOVASTATIN]	> 10 µM	> 10 µM	> 10 µM							
CC[C@@H](CO)NC(=O)[C@@H]1C=C2c3cccc4c3c(cn4C)C[C@H]2N(C)C1 [METHYSERGIDE]	> 10 µM	11 µM	> 10 µM							
CNC(=C[N+](=O)[O-])NCCSCc1csc(CN(C)C)n1 [NIZATIDINE]	> 10 µM	> 10 µM	> 10 µM							
CN1Cc2c(N)cccc2C(c2ccccc2)C1 (stereo not drawn) [NOMIFENSINE]	> 30 µM	> 30 µM	> 30 µM							
CC(CN1c2ccccc2Sc2ccccc21)N(C)C (stereo not drawn) [PROMETHAZINE]	> 10 µM			> 30 µM	0.7 µM	11.3 µM	> 30 µM	0.46 µM		> 3 µM
CCCc1cc(=O)[nH]c(=S)[nH]1 [PROPYLTHIOURACIL]	> 10 µM	> 10 µM	> 10 µM							
Cn1cc(C(=O)[C@@H]2CCc3nc[nH]c3C2)c2ccccc21 [RAMOSETRON]	17 µM	4.3 µM	17 µM							
CN(CCOc1ccc(CC2SC(=O)NC2=O)cc1)c1ccccn1 (stereo not drawn) [ROSIGLITAZONE]	> 30 µM	8.6 µM	> 30 µM							
S=P(N1CC1)(N1CC1)N1CC1 [THIOTEPA]	> 30 µM	14 µM								
CC(C)[C@H](N)C(=O)OCCOCn1cnc2c(=O)[nH]c(N)nc21 [VALACYCLOVIR]	> 10 µM	> 10 µM	> 10 µM							
CCC1=C[C@@H]2CN(C1)Cc1c([nH]c3ccccc13)[C@@](C(=O)OC)(c1cc3c(cc1OC)N(C)[C@H]1[C@@](O)(C(=O)OC)[C@H](OC(C)=O)[C@]4(CC)C=CCN5CC[C@]31[C@@H]54)C2 [VINORELBINE]				> 30 µM	> 30 µM	> 30 µM	> 30 µM	> 30 µM		> 30 µM
COc1cc(C(=O)NS(=O)(=O)c2ccccc2C)ccc1Cc1cn(C)c2ccc(NC(=O)OC3CCCC3)cc12 [ZAFIRLUKAST]	> 10 µM		6.32 µM							
O=C1Cc2cc(CCN3CCN(c4nsc5ccccc45)CC3)c(Cl)cc2N1 [ZIPRASIDONE]	> 10 µM			> 30 µM	0.003 µM	0.507 µM	> 30 µM		> 30 µM	> 30 µM
